Paper PMC9022229, “Induction of Paraptosis by Cyclometalated Iridium Complex-Peptide Hybrids and CGP37157 via a Mitochondrial Ca^2+ Overload Triggered by Membrane Fusion between Mitochondria and the Endoplasmic Reticulum” (Biochemistry, 2022)
Residues, ends and D or L forms follow the SMILES beside them. *: point of attachment. X1 = O=C(COc1ccc(-c2ccccn2)cc1)NCCCCCCCCN*

How the values were obtained:
Jurkat cells [1] = experiment: Intracellular uptake in Jurkat cells by ICP-MS; assay type: cell-based; details: 5 μM, 37 °C, 5% CO2, ICP-MS, n = 3
Description: The time-dependent intracellular uptake of 4 into Jurkat cells was measured by ICP-MS (inductively coupled plasma-mass spectrometry). Jurkat cells were treated with 4 (5 μM) for 30 min, 1 h, 2 h, and 3 h at 37 °C under 5% CO2, washed three times with PBS, and lysed with nitric acid at 4 °C overnight. The lysates were diluted with H2O, and the samples were analyzed by ICP-MS.
In a 1.5 mL Eppendorf tube, Jurkat cells (1.0 × 10^6 cells) were treated with 4 (5 μM) for 0–3 h at 37 °C under 5% CO2 (n = 3). After the cells had been washed three times with PBS, HNO3 (60%, 0.5 mL) was added to the cells and the resulting solutions were incubated overnight at 4 °C. After centrifugation (15000 rpm, 4 °C, 10 min), the supernatant was transferred to a 15 mL tube, diluted with H2O (4.5 mL), and filtered. The number of iridium atoms was measured by ICP-MS (NexION300S, PerkinElmer).

[2] = test system: dynamin-related protein 1 (DRP1); experiment: Western blot analysis of DRP1 in Jurkat cells; assay type: cell-based
Description: In a 1.5 mL Eppendorf tube, Jurkat cells (1.0 × 10^6 cells) were incubated in the presence of 4 ([…]), CGP37157 (100 μM for 0–24 h or 0–100 μM for 12 h), and celastrol (0–10 μM for 24 h or 1 μM for 0–24 h) at 37 °C under 5% CO2. After the cells had been washed twice with PBS, the proteins were extracted by using RIPA buffer (Nacalai Tesque) and quantified using a Pierce BCA Protein Assay Kit (Thermo Scientific). Proteins (7.5 μg/well) for MFNs and DRP1 and proteins (5.0 μg/well) for GAPDH were used for sodium dodecyl sulfate–polyacrylamide gel electrophoresis (SDS–PAGE) (7.5% for MFNs and DRP1 and 10% for GAPDH) (Bio-Rad). After SDS–PAGE, the proteins were transferred to a polyvinylidene fluoride membrane (Merck Millipore) by using a semi dry blotter (Bio-Rad). The membrane was blocked with Blocking One solution (Nacalai Tesque) for 30 min at room temperature. After being blocked, the membrane was washed three times with 1× TBST and treated with primary antibodies overnight (at a dilution of 1/1000 for MFNs and DRP1 or 1/2000 for GAPDH) in a signal enhancer HIKARI-solution A (Nacalai Tesque). The membrane was washed three times with 1× TBST and treated with the anti-mouse or anti-rabbit IgG HRP-conjugated secondary antibody (at a dilution of 1/4000 for MFNs and DRP1 or 1/10000 for GAPDH) in 1× TBST for 60 min at room temperature. The protein signal was spotted with a Chemi-Lumi One Ultra solution (Nacalai Tesque) using the ChemiDoc MP system (Bio-Rad).

Jurkat cells [3] = test system: Jurkat cells; parameters: method as in PMID 25875312, PMID 28032992, doi:10.1002/ejic.201700846, PMID 30154833, PMID 30177492; details: Chart 1, previously reported; read-out: EC50 against Jurkat cells; cited from earlier work
IMR90 cells = test system: IMR90 cells; parameters: method as in PMID 25875312, PMID 28032992, doi:10.1002/ejic.201700846, PMID 30154833, PMID 30177492; details: Chart 1, normal cell line, previously reported; read-out: EC50 against IMR90 cells; cited from earlier work
HeLa S3 cells = experiment: MTT assay of HeLa S3 cells; assay type: cell-based, human; details: 24 h, 10% FBS/MEM, 37 °C, 5% CO2
Description: (§1) HeLa S3 and A549 cells (2.0 × 10^4 cells/well) were seeded on a 96-well plate (BD Falcon) in cell culture medium and incubated overnight at 37 °C under 5% CO2. Jurkat (2.0 × 10^4 cells/well), HeLa S3, and A549 cells were treated with 4 (0–25 μM) and CGP37157 (0–100 μM) for 1, 3, 6, 12, and 24 h at 37 °C under 5% CO2, after which a MTT solution in PBS (0.5%, 10 μL) was added to each well.
(§2) Figure S3. MTT assay of HeLa S3 cells (plain curves with filled circles) and A549 cells (dashed curves with filled squares) treated with CGP37157 (0–100 µM) in 10% FBS/MEM (HeLa S3 cells) and 10% FBS/DMEM (A549 cells) for 24 h at 37 °C under 5% CO 2.
(§3) Figure S4. MTT assay of Jurkat cells treated with inhibitors of programmed cell death; Z-VAD-fmk (an apoptosis inhibitor), necrostatin-1 (Nec-1: a necroptosis inhibitor), and 3-methyl adenine (3-MA, an autophagy inhibitor) in the presence of CGP37157 (100 µM, 12 h). Values are shown as the mean ± SD for three independent experiments. ** P < 0.01.
(§4) (also on this page, place not known: Cell viability (% control) CO2. 50 Cell viability (% control) 0300 00030 of)

A549 cells = experiment: MTT assay of A549 cells; assay type: cell-based, human; details: 24 h, 10% FBS/DMEM, 37 °C, 5% CO2
Description: as §1, §2, §3, §4

Compound | Ir atom (intracellular amount) (Jurkat cells [1]; 30 min) | Ir atom (intracellular amount) (Jurkat cells [1]; 1 h) | Ir atom (intracellular amount) (Jurkat cells [1]; 2 h) | Ir atom (intracellular amount) (Jurkat cells [1]; 3 h) | Expression level of DRP1 (Figure 11A) ([2]; 4 at 5 μM, 30 min to 1 h) | DRP1 band intensity relative to absence of compound ([2]; Figure S8A, 4 at 1 µM, 1 h per legend) | DRP1 band intensity relative to absence of compound ([2]; Figure S8A, 4 at 2.5 µM, 1 h per legend) | DRP1 band intensity relative to absence of compound ([2]; Figure S8A, 4 at 5 µM, 1 h per legend) | DRP1 band intensity relative to absence of compound ([2]; Figure S8A, 4 at 10 µM, 1 h per legend) | DRP1 band intensity relative to absence of compound ([2]; Figure S8A, 4 at 20 µM, 1 h per legend) | EC50 (Jurkat cells [3]) | EC50 (IMR90 cells) | EC50 (HeLa S3 cells) | EC50 (A549 cells) | Expression level of DRP1 (Figure 11B) ([2]; CGP37157 100 μM, 1–6 h) | DRP1 band intensity relative to absence of compound ([2]; Figure S8B, CGP37157 10 µM, 12 h) | DRP1 band intensity relative to absence of compound ([2]; Figure S8B, CGP37157 20 µM, 12 h) | DRP1 band intensity relative to absence of compound ([2]; Figure S8B, CGP37157 50 µM, 12 h) | DRP1 band intensity relative to absence of compound ([2]; Figure S8B, CGP37157 80 µM, 12 h) | DRP1 band intensity relative to absence of compound ([2]; Figure S8B, CGP37157 100 µM, 12 h)
NCCCC[C@H](NC(=O)[C@H](CCCCN)NC(=O)[C@@H](N)CCCCN)C(=O)NCC(=O)NCC(=O)NCCCCCCCCNC(=O)COc1ccc(-c2ccccn2)cc1 [compound 4] (H-KKKGG-X1) | 0.64 ± 0.01 fmol/cell | 1.3 ± 0.1 fmol/cell | 1.2 ± 0.1 fmol/cell | 1.5 ± 0.4 fmol/cell | somewhat upregulated | 2.0 | 2.5 | 2.6 | 2.6 | 1.0 | 1.5 µM | > 25 µM | – | – | – | – | – | – | – | –
O=C1CSC(c2ccccc2Cl)c2cc(Cl)ccc2N1 (centres unmarked) [CGP37157] | – | – | – | – | – | – | – | – | – | – | – | – | 45 µM | 81 µM | somewhat upregulated | 1.6 | 1.7 | 1.3 | 1.4 | 0.89
